Values of other authors, collected in patent publication US20240041741A1, “COSMETIC COMPOSITION OBTAINED BY MIXING TWO SILANE BLENDS” (Henkel AG & Co. KGaA, priority 2020, published 2024).

Details: for solubility in water: 25° C.

Compound	solubility in water (in words) (at 25° C.)	solubility in water
O=S(=O)([O-])c1ccc(N=Nc2c(O)ccc3ccccc23)cc1.[Na+] [Acid Orange 7, sodium salt of 4-[(2-hydroxy-1-naphthyl)azo]benzene sulphonate]	–	more than 7 g/L
Nc1cc(S(=O)(=O)[O-])cc2cc(S(=O)(=O)[O-])c(N=Nc3ccccc3)c(O)c12.[Na+].[Na+] [Acid Red 33, diantrium salt of 5-amino-4-hydroxy-3-(phenylazo)-naphthalene-2,7-disulphonate]	–	2.5 mg/mL
O=C([O-])c1c(Cl)c(Cl)c(Cl)c(Cl)c1-c1c2c(Br)cc(=O)c(Br)c-2oc2c(Br)c(O)cc(Br)c12.O=C([O-])c1c(Cl)c(Cl)c(Cl)c(Cl)c1-c1c2c(Br)cc(=O)c(Br)c-2oc2c(Br)c(O)cc(Br)c12.[Na+].[Na+] [Acid Red 92, disodium salt of 3,4,5,6-tetrachloro-2-(1,4,5,8-tetrabromo-6-hydroxy-3-oxoxanthen-9-yl)benzoic acid]	–	greater than 10 g/L
O=C([O-])C1=NN(c2ccc(S(=O)(=O)[O-])cc2)C(=O)C1N=Nc1ccc(S(=O)(=O)[O-])cc1.[Na+].[Na+].[Na+] (centres unmarked) [Acid Yellow 23, trisodium salt of 4,5-dihydro-5-oxo-1-(4-sulfophenyl)-4-((4-sulfophenyl)azo)-1H-pyrazole-3-carboxylic acid]	readily soluble in water	–
mixture of the sodium salts of mono- and sisulfonic acids of 2-(2-quinolyl)-1H-indene-1,3(2H)-dione [Acid Yellow 3]	–	20 mg/mL
